# In ChEMBL document CHEMBL5247634, “Design, synthesis and anticancer evaluation of selective 2,4-disubstituted pyrimidine CDK9 inhibitors” (Eur J Med Chem, 2022):
# Assays:
# [1] = target: Cyclin-dependent kinase 2 (Homo sapiens, UniProt P24941)
# Description: Inhibition of CDK2 (unknown origin)
# [2] = tested on: PANC-1; assay: Antiproliferative activity against human PANC-1 cells assessed as cell growth inhibition measured after 72 hrs by MTT assay; assay type: functional, cell-based; details: PANC-1, 72 h
# [3] = tested on: L02; assay: Antiproliferative activity against human L02 cells assessed as cell growth inhibition measured after 72 hrs by MTT assay; assay type: functional, cell-based; details: L02, 72 h
# [4] = tested on: NCI-H1975; assay: Antiproliferative activity against human NCI-H1975 cells assessed as cell growth inhibition measured after 72 hrs by MTT assay; assay type: functional, cell-based; details: NCI-H1975, 72 h
# [5] = tested on: A549; assay: Antiproliferative activity against human A549 cells assessed as cell growth inhibition measured after 72 hrs by MTT assay; assay type: functional, cell-based; details: A549, 72 h
# [6] = tested on: A-431; assay: Antiproliferative activity against human A-431 cells assessed as cell growth inhibition measured after 72 hrs by MTT assay; assay type: functional, cell-based; details: A-431, 72 h
# [7] = tested on: HCT-116; assay: Antiproliferative activity against human HCT-116 cells assessed as cell growth inhibition measured after 72 hrs by MTT assay; assay type: functional, cell-based; details: HCT-116, 72 h
# [8] = species on record: Homo sapiens; assay: Selectivity index, ratio of IC50 for CDK2/cyclin A (unknown origin) to IC50 for CDK9/cyclin T1 (unknown origin)
# [9] = target: Cyclin-dependent kinase 2/cyclin A (Homo sapiens, UniProt P24941); assay: Inhibition of CDK2/cyclin A (unknown origin) incubated for 1 hr in presence of ATP by ADP-glo luminescent assay; assay type: protein-complex assay
# [10] = target: CDK9/cyclin T1 (Homo sapiens, UniProt P50750); assay: Inhibition of CDK9/cyclin T1 (unknown origin) using as PDKtide substrate incubated for 1 hr in presence of ATP by ADP-glo luminescent assay; assay type: protein-complex assay
# CDK9/cyclin T1, sequence (O60563 whole entry): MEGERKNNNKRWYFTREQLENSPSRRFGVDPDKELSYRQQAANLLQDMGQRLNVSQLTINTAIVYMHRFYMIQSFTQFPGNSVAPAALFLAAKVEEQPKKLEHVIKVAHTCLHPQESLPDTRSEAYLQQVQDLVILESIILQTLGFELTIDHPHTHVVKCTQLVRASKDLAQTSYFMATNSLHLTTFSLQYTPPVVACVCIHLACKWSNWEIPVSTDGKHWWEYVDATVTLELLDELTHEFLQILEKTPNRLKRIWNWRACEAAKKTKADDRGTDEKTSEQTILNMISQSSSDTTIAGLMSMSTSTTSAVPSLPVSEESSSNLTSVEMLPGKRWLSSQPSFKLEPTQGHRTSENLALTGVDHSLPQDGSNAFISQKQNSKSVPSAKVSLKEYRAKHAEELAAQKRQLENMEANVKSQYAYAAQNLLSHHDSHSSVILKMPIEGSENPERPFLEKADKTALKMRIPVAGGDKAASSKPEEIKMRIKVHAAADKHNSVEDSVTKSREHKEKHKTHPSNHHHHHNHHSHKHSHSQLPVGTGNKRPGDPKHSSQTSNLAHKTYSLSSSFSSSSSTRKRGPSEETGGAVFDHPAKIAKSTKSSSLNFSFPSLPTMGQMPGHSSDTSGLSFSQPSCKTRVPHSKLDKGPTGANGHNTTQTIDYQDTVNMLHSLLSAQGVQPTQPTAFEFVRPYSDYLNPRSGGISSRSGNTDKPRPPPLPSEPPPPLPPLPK
# CDK9/cyclin T1, sequence (P50750 whole entry): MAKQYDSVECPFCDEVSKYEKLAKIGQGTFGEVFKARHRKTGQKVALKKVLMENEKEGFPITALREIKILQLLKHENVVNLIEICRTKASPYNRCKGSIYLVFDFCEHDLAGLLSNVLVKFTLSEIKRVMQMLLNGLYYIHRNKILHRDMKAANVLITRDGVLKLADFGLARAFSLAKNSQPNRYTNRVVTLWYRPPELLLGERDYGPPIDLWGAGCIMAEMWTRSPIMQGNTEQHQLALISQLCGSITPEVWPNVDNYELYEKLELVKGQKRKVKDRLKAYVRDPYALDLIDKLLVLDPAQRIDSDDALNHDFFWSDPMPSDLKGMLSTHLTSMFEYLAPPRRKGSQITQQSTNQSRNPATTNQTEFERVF
IC50 [1] [µM],IC50 [2] [µM],IC50 [4] [µM],IC50 [5] [µM],IC50 [6] [µM],IC50 [7] [µM],Selectivity Index [8],IC50 [9] [µM],IC50 [10] [µM],Compound,IC50 [3] [µM]
> 2,–,–,–,–,–,–,–,–,COc1ccccc1-c1cc(Nc2cccc(CS(N)(=O)=O)c2)ncn1,–
–,9.41,9.61,10.1,6.7,16.3,–,–,–,CNCCNC(=O)c1ccc(Nc2nccc(-c3ccc(F)cc3OC)n2)cc1,22.7
–,2,2.71,4.04,2.52,2.75,–,–,–,O=C(NCCCN1CCOCC1)c1ccc(Nc2nccc(-c3ccc(F)cc3OCc3ccccc3)n2)cc1,14.5
–,7.19,19,17.7,6.33,15.3,–,–,–,O=C(NCCO)c1ccc(Nc2nccc(-c3ccc(F)cc3OCc3ccccc3)n2)cc1,23.3
–,16.5,10.6,–,16.6,18,–,–,–,O=C(NCCN1CCOCC1)c1ccc(Nc2nccc(-c3ccc(F)cc3OCc3ccccc3)n2)cc1,18.9
–,0.23,1.74,1.61,0.73,10.2,10.4,0.924,0.0855,CC(C)(C)OC(=O)N1CCN(C(=O)c2ccc(Nc3nccc(-c4ccc(F)cc4OCc4ccccc4)n3)cc2)CC1,5.69
–,1.08,1.2,–,1.32,0.13,29.8,0.796,0.0267,CCN(CC)CCNC(=O)c1ccc(Nc2nccc(-c3ccc(F)cc3OCc3ccccc3)n2)cc1,3.69
–,2.87,2.23,–,3.36,2.39,–,–,–,O=C(c1ccc(Nc2nccc(-c3ccc(F)cc3OCc3ccccc3)n2)cc1)N1CCNCC1,5.71
–,2.48,1.21,2.38,1.05,5.56,–,–,–,CN1CCN(C(=O)c2ccc(Nc3nccc(-c4ccc(F)cc4OCc4ccccc4)n3)cc2)CC1,5.28
0.4,–,–,–,–,–,–,–,–,CC(C)c1c2cc(-c3ccnc(N[C@H]4CC[C@H](NC5CCOCC5)CC4)n3)ccc2nn1C,–
